Measurements reported in US20180265877A1, “METHODS AND COMPOSITIONS FOR AGROBACTERIUM COMPRISING NEGATIVE SELECTION MARKERS” (PIONEER HI-BRED INTERNATIONAL, INC., priority 2015, published 2018).

Columns and labels:
Format in all cases: cell-based
[1] = system: Agrobacterium strain AGL0; experiment: Agrobacterium growth assay on solid minimal medium, wild-type AGL0; set-up: key to Growth score: a score of zero (0) indicating no visible colonies; 1+ indicating a few isolated colonies; ++: progressing up to 5+; +++: progressing up to 5+; ++++: progressing up to 5+; +++++: 5+ indicating a confluent lawn
Experimental: (§1) For all Agrobacterium growth-assay experiments, standard Agrobacterium minimal medium was used, with no additives as a control treatment, or with the addition of either 5-fluorocytosine, 5-fluorouracil or thymidine. To begin these tests, experiments were conducted to test for growth of wild-type and mutant AGL0 Agrobacterium strains on either 5-fluorocytosine (5-fluorocytosine, the non-toxic substrate of the CODA protein) or 5-fluorouracil (5-fluorouracil, the toxic product).
(§2) In Table 4, results of a more detailed kill-curve for strain AGL0 on 5-fluorouracil are shown. […] Finally, a third experiment was performed using either wild-type AGL0 or an auxotrophic mutant of AGL0 in which the gene encoding thymidylate synthase was inactivated, rendering the bacteria incapable of growth in the absence of thymidine (this strain was referred to as AGL0 THY−). The two strains were plated at high densities (10^6 or 10^8 CFU/plate) onto medium containing 0, 1 or 3 μg/ml 5-fluorouracil, with each of these three treatments containing either 0 or 50 mg/l thymidine.
The newly developed AGL0 mutant strain (THY−/codA+, see Example 1) was plated on varying concentrations of 5-fluorocytosine to assess growth. This strain, along with wild-type AGL0 were cultured overnight in liquid medium, diluted to 10^7 CFU and then 100 μl of suspension was plated onto minimal Agro medium+/− thymidine, with either 0, 100, 200 or 300 μg/ml 5-fluorocytosine, for a total of 8 treatments. After 72 hours at 28° C., the plates were scored for Agrobacterium growth.

[2] = system: Agrobacterium strain LBA4404; experiment: Agrobacterium growth assay on solid minimal medium, LBA4404; set-up: key: a score of zero (0) indicating no visible colonies; 1+ indicating a few isolated colonies; ++: progressing up to 5+; +++: progressing up to 5+; ++++: progressing up to 5+; +++++: 5+ indicating a confluent lawn; settings: LBA4404 plated at 1 × 10^4, after 3 days
Experimental: as §1

[3] = system: Agrobacterium strain EHA101; experiment: Agrobacterium growth assay on solid minimal medium, EHA101; set-up: key: a score of zero (0) indicating no visible colonies; 1+ indicating a few isolated colonies; ++: progressing up to 5+; +++: progressing up to 5+; ++++: progressing up to 5+; +++++: 5+ indicating a confluent lawn; settings: EHA101 plated at 1 x 10^4, after 3 days
Experimental: as §1

[4] = system: Agrobacterium strain EHA105; experiment: Agrobacterium growth assay on solid minimal medium, EHA105; set-up: key: a score of zero (0) indicating no visible colonies; 1+ indicating a few isolated colonies; ++: progressing up to 5+; +++: progressing up to 5+; ++++: progressing up to 5+; +++++: 5+ indicating a confluent lawn; settings: EHA105 plated at 1 × 10^4, after 3 days
Experimental: as §1

[5] = system: AGL0 THY−; experiment: Agrobacterium growth assay on solid medium, thymidine auxotroph AGL0 THY−; settings: for Growth score: after 24 hours
Experimental: as §2

[6] = system: four Agrobacterium strains (AGL0, LBA4404, EHA101 and EHA105); experiment: Agrobacterium growth assay, the four strains
Experimental: as §1

## O=c1[nH]cc(F)c(=O)[nH]1 [5-fluorouracil]
[1]; 0.3 μg/ml 5-fluorouracil, plating densities 1×10^3 to 1×10^8 CFU/plate
  Growth: only a few colonies grew
[1]; 1 μg/ml 5-fluorouracil or higher, all plating densities
  Growth: completely inhibited
[1]; AGL0 1 x 10^6, 5-fluorouracil 1 μg/ml, no thymidine, after 24 hours
  Growth score: 0
[1]; AGL0 1 x 10^6, 5-fluorouracil 1 μg/ml, thy 50 mg/l, after 24 hours
  Growth score: 0
[1]; AGL0 1 x 10^6, 5-fluorouracil 3 μg/ml, no thymidine, after 24 hours
  Growth score: 0
[1]; AGL0 1 x 10^6, 5-fluorouracil 3 μg/ml, thy 50 mg/l, after 24 hours
  Growth score: 0
[1]; AGL0 1 x 10^8, 5-fluorouracil 1 μg/ml, no thymidine, after 24 hours
  Growth score: 0
[1]; AGL0 1 x 10^8, 5-fluorouracil 1 μg/ml, thy 50 mg/l, after 24 hours
  Growth score: 0
[1]; AGL0 1 x 10^8, 5-fluorouracil 3 μg/ml, no thymidine, after 24 hours
  Growth score: 0
[1]; AGL0 1 x 10^8, 5-fluorouracil 3 μg/ml, thy 50 mg/l, after 24 hours
  Growth score: 0
[1]; AGL0 1 × 10^3 CFU, 0.1 μg/ml 5-fluorouracil, 72 hours
  Growth score: ++
[1]; AGL0 1 × 10^3 CFU, 0.3 μg/ml 5-fluorouracil, 72 hours
  Growth score: +
[1]; AGL0 1 × 10^3 CFU, 1 μg/ml 5-fluorouracil, 72 hours
  Growth score: 0
[1]; AGL0 1 × 10^3 CFU, 3 μg/ml 5-fluorouracil, 72 hours
  Growth score: 0
[1]; AGL0 1 × 10^4 CFU, 0.1 μg/ml 5-fluorouracil, 72 hours
  Growth score: ++
[1]; AGL0 1 × 10^4 CFU, 0.3 μg/ml 5-fluorouracil, 72 hours
  Growth score: +
[1]; AGL0 1 × 10^4 CFU, 1 μg/ml 5-fluorouracil, 72 hours
  Growth score: 0
[1]; AGL0 1 × 10^4 CFU, 3 μg/ml 5-fluorouracil, 72 hours
  Growth score: 0
[1]; AGL0 1 × 10^5 CFU, 0.1 μg/ml 5-fluorouracil, 72 hours
  Growth score: +++
[1]; AGL0 1 × 10^5 CFU, 0.3 μg/ml 5-fluorouracil, 72 hours
  Growth score: +
[1]; AGL0 1 × 10^5 CFU, 1 μg/ml 5-fluorouracil, 72 hours
  Growth score: 0
[1]; AGL0 1 × 10^5 CFU, 3 μg/ml 5-fluorouracil, 72 hours
  Growth score: 0
[1]; AGL0 1 × 10^6 CFU, 0.1 μg/ml 5-fluorouracil, 72 hours
  Growth score: ++
[1]; AGL0 1 × 10^6 CFU, 0.3 μg/ml 5-fluorouracil, 72 hours
  Growth score: +
[1]; AGL0 1 × 10^6 CFU, 1 μg/ml 5-fluorouracil, 72 hours
  Growth score: 0
[1]; AGL0 1 × 10^6 CFU, 3 μg/ml 5-fluorouracil, 72 hours
  Growth score: 0
[1]; AGL0 1 × 10^7 CFU, 0.1 μg/ml 5-fluorouracil, 72 hours
  Growth score: ++
[1]; AGL0 1 × 10^7 CFU, 0.3 μg/ml 5-fluorouracil, 72 hours
  Growth score: +
[1]; AGL0 1 × 10^7 CFU, 1 μg/ml 5-fluorouracil, 72 hours
  Growth score: 0
[1]; AGL0 1 × 10^7 CFU, 3 μg/ml 5-fluorouracil, 72 hours
  Growth score: 0
[1]; AGL0 1 × 10^8 CFU, 0.1 μg/ml 5-fluorouracil, 72 hours
  Growth score: +++
[1]; AGL0 1 × 10^8 CFU, 0.3 μg/ml 5-fluorouracil, 72 hours
  Growth score: +
[1]; AGL0 1 × 10^8 CFU, 1 μg/ml 5-fluorouracil, 72 hours
  Growth score: 0
[1]; AGL0 1 × 10^8 CFU, 3 μg/ml 5-fluorouracil, 72 hours
  Growth score: 0
[1]; AGL0 plated at 1 × 10^4, 0.1 μg/ml 5-fluorouracil, after 3 days
  Growth score: +
[1]; AGL0 plated at 1 × 10^4, 1.0 μg/ml 5-fluorouracil, after 3 days
  Growth score: 0
[1]; AGL0 plated at 1 × 10^4, 3.0 μg/ml 5-fluorouracil, after 3 days
  Growth score: 0
[1]; AGL0 plated at 4 × 10^7, 0.1 μg/ml 5-fluorouracil, after 3 days
  Growth score: ++++
[1]; AGL0 plated at 4 × 10^7, 1.0 μg/ml 5-fluorouracil, after 3 days
  Growth score: ++++
[1]; AGL0 plated at 4 × 10^7, 3.0 μg/ml 5-fluorouracil, after 3 days
  Growth score: 0
[1]; wild-type AGL0, 1 and 3 μg/ml 5-fluorouracil, 0 or 50 mg/l thymidine, 24 hours
  Growth: no growth was observed
[2]; 0.1 μg/ml 5-fluorouracil
  Growth score: +++
[2]; 1.0 μg/ml 5-fluorouracil
  Growth score: 0
[2]; 3.0 μg/ml 5-fluorouracil
  Growth score: 0
[3]; 0.1 μg/ml 5-fluorouracil
  Growth score: ++
[3]; 1.0 μg/ml 5-fluorouracil
  Growth score: 0
[3]; 3.0 μg/ml 5-fluorouracil
  Growth score: 0
[4]; 0.1 μg/ml 5-fluorouracil
  Growth score: +
[4]; 1.0 μg/ml 5-fluorouracil
  Growth score: 0
[4]; 3.0 μg/ml 5-fluorouracil
  Growth score: 0
[5]; AGL0 THY- 1 x 10^6, 5-fluorouracil 1 μg/ml, no thymidine
  Growth score: 0
[5]; AGL0 THY- 1 x 10^6, 5-fluorouracil 1 μg/ml, thy 50 mg/l
  Growth score: 0
[5]; AGL0 THY- 1 x 10^6, 5-fluorouracil 3 μg/ml, no thymidine
  Growth score: 0
[5]; AGL0 THY- 1 x 10^6, 5-fluorouracil 3 μg/ml, thy 50 mg/l
  Growth score: 0
[5]; AGL0 THY- 1 x 10^8, 5-fluorouracil 1 μg/ml, no thymidine
  Growth score: 0
[5]; AGL0 THY- 1 x 10^8, 5-fluorouracil 1 μg/ml, thy 50 mg/l
  Growth score: 0
[5]; AGL0 THY- 1 x 10^8, 5-fluorouracil 3 μg/ml, no thymidine
  Growth score: 0
[5]; AGL0 THY- 1 x 10^8, 5-fluorouracil 3 μg/ml, thy 50 mg/l
  Growth score: 0
[5]; THY− AGL0, 1 and 3 μg/ml 5-fluorouracil, 0 or 50 mg/l thymidine, 24 hours
  Growth: no growth was observed
[6]; 1 μg/ml 5-fluorouracil, all four strains plated at the lower density (1×10^4 CFU)
  Growth: no growth
[6]; 3 μg/ml 5-fluorouracil, any strain
  Growth: no growth was observed
[6]; fold lower
  Totally inhibiting 5-fluorouracil concentration (3 μg/ml) relative to highest 5-fluorocytosine concentration tested (1000 μg/ml): over 300 fold
